In article PMC11375702, “Early Preclinical Studies of Ergosterol Peroxide and Biological Evaluation of Its Derivatives” (ACS Omega, 2024):

What was measured:
[1] = test system: MDA-MB-231-GFP mammary fat pad tumors; assay: In vivo efficacy, MDA-MB-231-GFP mammary fat pad tumors; parameters: species or system mouse; conditions: 100 mg/kg BW i.p. 3 times per week
Procedure: Finally, to test the effect of EP on breast cancer progression in vivo, we established mammary fat pad tumors from GFP-tagged TNBC MDA-MB-231 cancer cells as we have previously described.[47] Mice were injected with TNBC cells diluted in Matrigel in their fourth mammary fat pad, and when tumors were palpable, the mice were injected via intraperitoneal (i.p.) 3 times per week with vehicle (10% ethanol) or 100 mg/kg BW of EP. […] The progression of the tumor was quantified by fluorescence image analysis obtained on a weekly basis.
Female (3-week-old) severe combined immunodeficient (SCID) Hairless Outbred (SHO) mice (Charles River Laboratories, Wilmington, MA) were segregated into two groups (n = 3 mice/group) and housed under specific pathogen-free conditions. The mice received an autoclaved AIN 76-A phytoestrogen-free diet (Tek Global, Harlan Teklad, Madison, WI) and water ad libitum. Cell inoculations were performed under isoflurane inhalation as we previously described[47] to produce orthotopic tumors as described in the provided reference.[54] […] GFP-tagged cells were monitored weekly for the duration of the study using an iBox Explorer^2 (UVP, CA) animal imaging system. […] Tumor fluorescence intensities were analyzed using ImageJ software (National Institutes of Health, Bethesda, MD). […]

[2] = test system: Caco-2 cells; assay: Caco-2 permeability assay; type: in vitro ADME; conditions: Caco-2
Procedure: It was performed in the 96-well Transwell system with a modified method.[36] Caco-2 cells were maintained at 37 °C in a humidified incubator with an atmosphere of 5% CO2. The cells were cultured in MEM containing 20% FBS in […], 100 units/mL penicillin, and 100 μg/mL of streptomycin. The Caco-2 cells were seeded onto inserts of a 96-well plate at a density of 0.5 × 10^5 cells/insert and cultured in the MEM containing 20% FBS for 7 days. Each cultured monolayer on the 96-well plate was washed twice with HBSS/HEPES (10 mM, pH 7.4). The permeability assay was initiated by the addition of each compound solution (10 μmol/L) into inserts (apical side, A) or receivers (basolateral side, B). The Caco-2 cell monolayers were incubated for 2 h at 37 °C. Fractions were collected from receivers (if apical to basal permeability) or inserts (if basal to apical permeability), and concentrations were assessed by UPLC/MS (Waters; Milford, MA). All compounds were tested in triplicates. The A → B (or B → A) apparent permeability coefficients ([…]) of each compound were calculated using the equation Pappa = dQ/dt × 1/AC0. The flux of a drug across the monolayer is dQ/dt (μmol/s). The initial drug concentration on the apical side is C0 (μmol/L). The surface area of the monolayer is A (cm^2).

[3] = Maximum tolerated dose (MTD) study, single oral dose; type: in vivo, mouse; conditions: for Gross pathology, External Abnormalities: No Abnormality Detected (number of mice) / Gross pathology, Internal Abnormalities: No Abnormality Detected (number of mice): 6 mice examined
Procedure: The study was conducted according to published and acceptable experimental conditions reported.[53] Animal protocols approved by LSU#IACUCAM21065 and UCC# 037–2021–16–01-PHA-IBC. Briefly, male and female Balb/c mice were given a single oral dose administration of ergosterol peroxide to C57BL/6 female and male mice (5–8 weeks old), followed by 7 days postdose observations. Toxicity is defined as a 20% loss of body weight. The study comprised three groups for a toxicity phase including: one control and two EP-treated groups (G2 and G3), having 6 mice/sex/group. Mice from groups G2 (300 mg/kg BW) and G3 (500 mg/kg BW) were administered an EP uniform suspension (light yellow), once by oral gavage. The mice from the control group (G1) received a 1% v/v Tween 80 and 0.5% w/v NaCMC in the RO water suspension. The dosing volume was kept constant at 10 mL/kg for each mouse. Then, animals were euthanized, and organs (liver, lung, heart, and kidney) were collected to check global signs of toxicity. Parameters evaluated included observation for clinical signs, body weight, body weight gain, feed consumption, clinical chemistry, and gross pathology. The total animals per MTD was 36 mice.

[4] = Balb/c, mouse and human

For CC(C)[C@@H](C)/C=C/[C@@H](C)[C@H]1CC[C@@H]2[C@]1(C)CC[C@H]1[C@]23C=C[C@]2(C[C@@H](O)CC[C@]12C)OO3 [Compound 2, Ergosterol peroxide], the tumor growth ([1]; by week 3, P < 0.05) was “decreases tumor growth”, the tumor size reduction ([1]; end of study, vs vehicle) was roughly 17% and the “efflux ratio (B2A/A2B)” value [2] was 0.93. For the same compound, the “decrease in albumin vs vehicle control” value ([3]; 300 mg/kg (G2), male mice) was 6%, the “decrease in triglycerides vs vehicle control” value ([3]; 500 mg/kg (G3), male mice) was 19% and the MTD at 7 days ([3]; both sexes, mouse, in vivo, single oral dose, male or female mice) was greater than 500 mg/kg. For the same compound, the “ALB, mean” value ([3]; female, 300 mg/kg) was 3.08 g/dL, the “ALP, mean” value ([3]; female, 300 mg/kg) was 394.32 U/L and the “ALT, mean” value ([3]; female, 300 mg/kg) was 44.99 U/L. The “AST, mean” value ([3]; female, 300 mg/kg) was 88.20 U/L, the “BUN, mean” value ([3]; female, 300 mg/kg) was 16.45 mg/dL and the “CREA, mean” value ([3]; female, 300 mg/kg) was 0.21 mg/dL. The “TGL, mean” value ([3]; female, 300 mg/kg) was 38.15 mg/dL, the “Gross pathology, External Abnormalities: No Abnormality Detected (number of mice)” value ([3]; female, 300 mg/kg) was 6 and the “Body Weight, mean” value ([3]; female, 300 mg/kg, day 1) was 21.05 g. For the same compound, the “Food Consumption, Average Feed Intake/ Animal” value (shortened to “Food Consumption”) ([3]; female, 300 mg/kg, day 1 to 4) was 12.3 g/Animal, the “Body Weight, mean” value ([3]; female, 300 mg/kg, day 4) was 21.15 g and the “Food Consumption” value ([3]; female, 300 mg/kg, day 4 to 7) was 12.2 g/Animal. For the same compound, the “Body Weight, mean” value ([3]; female, 300 mg/kg, day 7) was 21.45 g, the “ALB, mean” value ([3]; female, 500 mg/kg) was 3.03 g/dL and the “ALP, mean” value ([3]; female, 500 mg/kg) was 400.51 U/L. The “ALT, mean” value ([3]; female, 500 mg/kg) was 47.50 U/L, the “AST, mean” value ([3]; female, 500 mg/kg) was 75.14 U/L and the “BUN, mean” value ([3]; female, 500 mg/kg) was 17.63 mg/dL. For the same compound, the “CREA, mean” value ([3]; female, 500 mg/kg) was 0.20 mg/dL, the “TGL, mean” value ([3]; female, 500 mg/kg) was 30.51 mg/dL and the “Gross pathology, External Abnormalities: No Abnormality Detected (number of mice)” value ([3]; female, 500 mg/kg) was 6. For the same compound, the “Body Weight, mean” value ([3]; female, 500 mg/kg, day 1) was 21.27 g, the “Food Consumption” value ([3]; female, 500 mg/kg, day 1 to 4) was 12.3 g/Animal and the “Body Weight, mean” value ([3]; female, 500 mg/kg, day 4) was 21.17 g. For the same compound, the “Food Consumption” value ([3]; female, 500 mg/kg, day 4 to 7) was 11.8 g/Animal, the “Body Weight, mean” value ([3]; female, 500 mg/kg, day 7) was 21.53 g and the “ALB, mean” value ([3]; male, 300 mg/kg) was 2.91 g/dL. For the same compound, the “ALP, mean” value ([3]; male, 300 mg/kg) was 312.51 U/L, the “ALT, mean” value ([3]; male, 300 mg/kg) was 34.83 U/L and the “AST, mean” value ([3]; male, 300 mg/kg) was 47.80 U/L. For the same compound, the “BUN, mean” value ([3]; male, 300 mg/kg) was 16.45 mg/dL, the “CREA, mean” value ([3]; male, 300 mg/kg) was 0.17 mg/dL and the “TGL, mean” value ([3]; male, 300 mg/kg) was 51.23 mg/dL. For the same compound, the “Gross pathology, External Abnormalities: No Abnormality Detected (number of mice)” value ([3]; male, 300 mg/kg) was 6, the “Gross pathology, Internal Abnormalities: No Abnormality Detected (number of mice)” value ([3]; male, 300 mg/kg) was 6 and the “Body Weight, mean” value ([3]; male, 300 mg/kg, day 1) was 21.85 g. For the same compound, the “Food Consumption” value ([3]; male, 300 mg/kg, day 1 to 4) was 14.9 g/Animal, the “Body Weight, mean” value ([3]; male, 300 mg/kg, day 4) was 22.28 g and the “Food Consumption” value ([3]; male, 300 mg/kg, day 4 to 7) was 14.6 g/Animal. The “Body Weight, mean” value ([3]; male, 300 mg/kg, day 7) was 23.03 g, the “ALB, mean” value ([3]; male, 500 mg/kg) was 3.03 g/dL and the “ALP, mean” value ([3]; male, 500 mg/kg) was 412.86 U/L. The “ALT, mean” value ([3]; male, 500 mg/kg) was 54.07 U/L, the “AST, mean” value ([3]; male, 500 mg/kg) was 91.50 U/L and the “BUN, mean” value ([3]; male, 500 mg/kg) was 17.06 mg/dL. The “CREA, mean” value ([3]; male, 500 mg/kg) was 0.17 mg/dL, the “TGL, mean” value ([3]; male, 500 mg/kg) was 46.91 mg/dL and the “Gross pathology, External Abnormalities: No Abnormality Detected (number of mice)” value ([3]; male, 500 mg/kg) was 6. The “Gross pathology, Internal Abnormalities: No Abnormality Detected (number of mice)” value ([3]; male, 500 mg/kg) was 6, the “Body Weight, mean” value ([3]; male, 500 mg/kg, day 1) was 22.62 g and the “Food Consumption” value ([3]; male, 500 mg/kg, day 1 to 4) was 10.4 g/Animal. The “Body Weight, mean” value ([3]; male, 500 mg/kg, day 4) was 22.70 g, the “Food Consumption” value ([3]; male, 500 mg/kg, day 4 to 7) was 13.7 g/Animal and the “Body Weight, mean” value ([3]; male, 500 mg/kg, day 7) was 22.27 g. The clinical signs ([3]; oral, 300 and 500 mg/kg, mice) was “no abnormal clinical signs”.

Compound CC(C)[C@@H](C)/C=C/[C@@H](C)[C@H]1CC[C@@H]2[C@]1(C)CC[C@H]1[C@]23C=C[C@]2(CC(=O)CC[C@]12C)OO3 [Compound 3] has a plasma stability [4] greater than 48 h.
